Type in all cases: cell-based
What all share (set-up): expressed in transfected cells

For experiment [1], the target named is T1, F508del-CFTR (Homo sapiens, UniProt P13569, DEL508-508). Put plainly: HS-YFP functional assay for F508del-CFTR correctors in CFBE41o- cells. The following applies: CFBE41o- cells stably expressing F508del-CFTR and HS-YFP; 24 h incubation; stimulation with forskolin 20 µM plus VX-770 1 µM. How it is done: The ability of these compounds to correct the basic defects related to F508del mutant was evaluated on immortalized CFBE41o-bronchial epithelial cells stably expressing F508del-CFTR and the halide sensitive yellow fluorescent protein (HS-YFP).
T1 sequence (P13569 with tags, fused parts or gaps DEL508-508): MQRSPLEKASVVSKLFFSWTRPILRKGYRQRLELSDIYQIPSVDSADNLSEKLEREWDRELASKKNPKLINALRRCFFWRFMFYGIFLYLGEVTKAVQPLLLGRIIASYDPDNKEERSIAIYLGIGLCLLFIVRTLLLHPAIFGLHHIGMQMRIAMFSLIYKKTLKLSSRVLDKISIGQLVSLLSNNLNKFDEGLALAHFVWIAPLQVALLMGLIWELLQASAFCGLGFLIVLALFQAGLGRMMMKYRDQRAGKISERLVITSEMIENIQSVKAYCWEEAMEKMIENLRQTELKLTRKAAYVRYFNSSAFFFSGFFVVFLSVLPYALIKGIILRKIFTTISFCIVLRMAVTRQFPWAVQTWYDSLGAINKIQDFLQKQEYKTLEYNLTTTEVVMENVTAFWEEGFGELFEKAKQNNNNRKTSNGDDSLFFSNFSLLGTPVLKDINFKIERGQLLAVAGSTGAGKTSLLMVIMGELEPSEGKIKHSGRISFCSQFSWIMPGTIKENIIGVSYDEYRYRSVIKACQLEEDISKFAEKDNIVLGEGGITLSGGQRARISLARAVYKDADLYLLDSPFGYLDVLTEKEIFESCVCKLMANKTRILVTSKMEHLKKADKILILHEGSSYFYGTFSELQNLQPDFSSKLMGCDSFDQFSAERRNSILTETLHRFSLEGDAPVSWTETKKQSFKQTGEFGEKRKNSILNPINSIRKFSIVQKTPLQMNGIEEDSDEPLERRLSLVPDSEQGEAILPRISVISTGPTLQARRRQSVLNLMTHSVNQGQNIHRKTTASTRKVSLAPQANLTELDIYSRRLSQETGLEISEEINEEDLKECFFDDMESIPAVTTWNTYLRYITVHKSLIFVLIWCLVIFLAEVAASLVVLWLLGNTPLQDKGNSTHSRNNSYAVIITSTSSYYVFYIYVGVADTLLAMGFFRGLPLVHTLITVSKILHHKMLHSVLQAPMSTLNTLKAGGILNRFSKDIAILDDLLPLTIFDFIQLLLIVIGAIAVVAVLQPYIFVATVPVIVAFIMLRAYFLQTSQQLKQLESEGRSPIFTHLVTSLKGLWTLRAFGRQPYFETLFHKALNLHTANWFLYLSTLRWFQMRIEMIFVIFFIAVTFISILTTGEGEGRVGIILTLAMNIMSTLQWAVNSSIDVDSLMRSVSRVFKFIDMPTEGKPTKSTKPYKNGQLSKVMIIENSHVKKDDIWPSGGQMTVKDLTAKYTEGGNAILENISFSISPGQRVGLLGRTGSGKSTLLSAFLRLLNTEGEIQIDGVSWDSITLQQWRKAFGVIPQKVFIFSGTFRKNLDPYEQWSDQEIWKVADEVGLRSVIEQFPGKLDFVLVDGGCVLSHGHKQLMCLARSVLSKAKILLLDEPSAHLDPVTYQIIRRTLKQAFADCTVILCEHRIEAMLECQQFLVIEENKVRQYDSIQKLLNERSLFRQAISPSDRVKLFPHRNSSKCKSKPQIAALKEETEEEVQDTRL
The measurements of the rate of HS-YFP quenching caused by iodide influx allowed us to determine the activity of F508del-CFTR, after incubation with the compounds, as cited. Activity was then compared to that of cells treated with the corrector VX-809 (1 µM) or with vehicle alone (DMSO).
Within the novel third series of hybrids herein proposed, based on their potency and efficacy in terms of CFTR rescue, we selected six compounds and determined the dose–response relationships (Figure 6). To this aim, F508del-CFTR expressing CFBE41o-cells were treated for 24 h with our hybrids 9b, 9f, 9g, 9h, 9j, and 9y and then mutant CFTR activity was measured by using the YFP functional assay (see Materials and Methods section for details).
Immortalized bronchial epithelial CFBE41o-cells with stable co-expression of the halide-sensitive yellow fluorescent protein (HS-YFP) and of F508del-CFTR were cultured using MEM medium supplemented with 10% fetal calf serum, 100 U/mL penicillin, 2 mM L-glutamine, and […] streptomycin.
(§1) CFBE41o-cells co-expressing mutants CFTR and HS-YFP were plated (50,000 cells/well) on clear-bottom 96-well black microplates (Corning Life Sciences, Acton, MA) and grown at 37 °C in 5% CO2 for 24 h. For the corrector assay, CFBE41o-cells were treated for further 24 h with compounds as indicated. The following day, prior to the assay, the culture medium was removed and cells were stimulated for 30 min at 37 °C with 60 µL PBS (containing 137 mM NaCl, 2.7 mM KCl, 8.1 mM Na2HPO4, 1.5 mM KH2PO4, 1mM CaCl2, and 0.5 mM MgCl2) plus forskolin (20 µM) and VX-770 (1 µM).
(§2) Microplates containing CFBE41o-cells were then transferred to a plate reader (FluoStar Galaxy; BMG Labtech, Offenburg, Germany) equipped with excitation (HQ500/20X: 500 ± 10 nm) and emission (HQ535/30M: 535 ± 15 nm) filters for YFP (Chroma Technology, Brattleboro, VT, USA). During the assay fluorescence was measured continuously for 14 s with 2 s before and 12 s after injection of an iodide containing solution (165 µL of a modified PBS containing I^- instead of Cl^-; final I^- concentration in the well: 100 mM).
(§3) Fluorescence data were normalized for the initial value and fluorescence quenching rate following I^- influx, were determined by fitting the final 10 s of data for each well with an exponential function to extrapolate initial slope (dF/dt).
To evaluate the dose–response relationships, activity slopes obtained for each compound at the different concentrations were fitted with the Hill equation using the Igor software (WaveMetrics) to extrapolate EC50, maximal effect, and Hill coefficient.

Experiment [2] concerns the target T1, F508del-CFTR. Put plainly: HS-YFP functional assay of corrector combinations with VX-445. The note with it: CFBE41o- cells; 24 h; VX-445 3 µM; forskolin 20 µM plus VX-770 1 µM. As for the experimental part: Now, to further characterize the activity of these compounds, we tested the novel derivates 9b, 9g, and 9j, along with VX-809 as a positive control, in combination with VX-445 (3 µM), in CFBE41o-cells stably expressing F508del-CFTR by using the YFP functional assay (Figure 7). To this aim, cells were treated for 24 h with test compounds at different concentrations, in combination with VX-445 (3 µM), and then assayed after maximal stimulation of F508del-CFTR in the presence of forskolin (20 µM) plus VX-770 (1 µM).
as §1, §2, §3
Figure 7 Functional analysis of corrector combinations. F508del-CFTR activity was determined in CFBE41o-cells with stable expression of the HS-YFP. Cells were treated for 24 h with VX-445 (3 µM) alone or in combination with 9b, or 9g, or 9j, or VX-809 at different concentrations (from 102 nM to 10 µM). The YFP-based assay was performed after stimulation of CFTR activity with forskolin (20 µM) plus VX-770 (1 µM).

The target of experiment [3] is T1, F508del-CFTR. Put plainly: Western blot analysis of CFTR expression pattern (C band/B band ratio). The following applies: F508del-CFTR/HS-YFP CFBE41o- cells; 24 h; 50 nM and 1 µM; versus DMSO. The text has this:
We then biochemically estimated the rescue of the trafficking defect by analyzing the electrophoretic mobility of mutant CFTR protein. In Western blots, CFTR protein can be detected as two bands B and C, of approximately 150 and 170 kDa, respectively. Band B corresponds to immature, partially glycosylated CFTR, while band C corresponds to the mature fully glycosylated CFTR. In cells expressing wild-type CFTR protein, the prevalent form is band C, while the main form in cells expressing F508del-CFTR is band B, in agreement with the severe trafficking defect caused by this mutation (Figure 8). To estimate the effect of our molecules on CFTR expression pattern, we treated F508del-CFTR/HS-YFP expressing CFBE41o-cells for 24 h with test compounds 9b, 9g, and 9j (50 nM and 1 µM) VX-809 as a positive control or DMSO as a vehicle alone.
The next day, cells were lysed and the obtained lysates were subjected to SDS-PAGE followed by Western blotting (Figure 8A). Western blot images were analyzed with ImageJ software. CFTR bands, analyzed as ROI, were quantified in each lane after normalization for GAPDH as a loading control. […]
Supernatant protein concentration was calculated using the BCA assay (Euroclone, Milan, Italy). For each sample, 10 μg of total proteins was resolved in 4–20% gradient Criterion TGX precast gels, transferred to nitrocellulose membranes (using a Trans-Blot Turbo system; Bio-Rad, Hercules, CA, USA), and analyzed by Western blotting. Proteins were detected using the antibodies described above and subsequently visualized by chemiluminescence using the SuperSignal West Femto Substrate (Thermo Fisher Scientific, Waltham, MA, USA). […] Images were analyzed with ImageJ software (NIH). Bands were analyzed as ROI, normalized against the GAPDH loading control.
Figure 8 Biochemical analysis of the F508del-CFTR expression pattern: (A). […] Quantification of the C band/B band ratio in experiments as in (A). […]
A general note: Immunoblotting shows a protein as a band on a membrane.

As usually defined, the EC50 is the concentration needed to bring the measured effect to its halfway point.

Molecules are shown by their SMILES.

Regarding `COc1ccc(C(=O)c2sc(NC(=O)C3(c4ccc5c(c4)OCO5)CC3)nc2-c2ccc(OC)cc2)cc1` [Compound 9b], at F508del-CFTR [1], the EC50 was 64 nM. Further, the “effect of combination with VX-445 on F508del-CFTR activity” value at F508del-CFTR [2] is listed as “clear additive effect”. For the same compound, at F508del-CFTR [3], the “C band/B band ratio” value is given as “significant enhancement”.

Source of the values: PMC8955485, “Journey on VX-809-Based Hybrid Derivatives towards Drug-like F508del-CFTR Correctors: From Molecular Modeling to Chemical Synthesis and Biological Assays” (Pharmaceuticals, 2022).
